Results as given in patent US9580435B2, “Pyrrolo[2,3-D]pyrimidine derivatives as CB2 receptor agonists” (priority 2013, dated 2017).
pEC50: −log10 of the molar value. Read-outs that look alike come from different tables or passages of the source.

Experiments:
human CB2 receptors = molecular target: T1, human CB2 receptors (Homo sapiens, UniProt P34972); assay: functional cAMP assay, CHO cells expressing human CB2 receptors; type: cell-based
T1 construct: expressed in transfected cells; host or cells: CHO cells
Procedure: (§1) CHO cells expressing human CB1 or CB2 receptors are seeded 17-24 hours prior to the experiment 50.000 cells per well in a black 96 well plate with flat clear bottom (Corning Costar #3904) in DMEM (Invitrogen No. 31331), lx HT supplement, with 10% fetal calf serum and incubated at 5% CO2 and 37° C. in a humidified incubator. The growth medium was exchanged with Krebs Ringer Bicarbonate buffer with 1 mM IBMX and incubated at 30° C. for 30 min. Compounds were added to a final assay volume of 100 μl and incubated for 30 min at 30° C. Using the cAMP-Nano-TRF detection kit the assay (Roche Diagnostics) was stopped by the addition of 50 μl lysis reagent (Tris, NaCl, 1.5% Triton X100, 2.5% NP40, 10% NaN3) and 50 μl detection solutions (20 μM mAb Alexa700-cAMP 1:1, and 48 μM Ruthenium-2-AHA-cAMP) and shaken for 2 h at room temperature. The time-resolved energy transfer is measured by a TRF reader (Evotec Technologies GmbH), equipped with a ND:YAG laser as excitation source. The plate is measured twice with the excitation at 355 nm and at the emission with a delay of 100 ns and a gate of 100 ns, total exposure time 10 s at 730 (bandwidth 30 nm) or 645 nm (bandwidth 75 nm), respectively. The FRET signal is calculated as follows: FRET=T730-Alexa730-P(T645-B645) with P=Ru730-B730/Ru645-B645, where T730 is the test well measured at 730 nM, T645 is the test well measured at 645 nm, B730 and B645 are the buffer controls at 730 nm and 645 nm, respectively. cAMP content is determined from the function of a standard curve spanning from 10 μM to 0.13 nM cAMP.
(§2) EC50 values were determined using Activity Base analysis (ID Business Solution, Limited). The EC50 values for a wide range of cannabinoid agonists generated from this assay were in agreement with the values published in the scientific literature.

human CB1 receptors = molecular target: T2, human CB1 receptors (Homo sapiens, UniProt P21554); assay: functional cAMP assay, CHO cells expressing human CB1 receptors; type: cell-based
T2 construct: expressed in transfected cells; host or cells: CHO cells
Procedure: as §1, §2

[1] = human EC50, functional cAMP assay, CHO cells expressing human CB2, read-out: EC50:CB2

T1 sequence (P34972 whole entry): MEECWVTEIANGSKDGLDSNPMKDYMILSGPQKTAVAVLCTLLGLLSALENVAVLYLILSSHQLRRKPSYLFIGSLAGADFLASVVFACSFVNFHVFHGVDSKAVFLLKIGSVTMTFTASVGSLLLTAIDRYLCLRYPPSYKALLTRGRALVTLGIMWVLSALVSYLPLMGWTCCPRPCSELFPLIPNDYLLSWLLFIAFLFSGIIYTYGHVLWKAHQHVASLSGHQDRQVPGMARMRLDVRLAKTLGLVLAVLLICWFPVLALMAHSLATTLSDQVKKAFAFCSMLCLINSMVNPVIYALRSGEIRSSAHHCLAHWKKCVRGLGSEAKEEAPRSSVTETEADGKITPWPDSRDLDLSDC
T2 sequence (P21554 whole entry): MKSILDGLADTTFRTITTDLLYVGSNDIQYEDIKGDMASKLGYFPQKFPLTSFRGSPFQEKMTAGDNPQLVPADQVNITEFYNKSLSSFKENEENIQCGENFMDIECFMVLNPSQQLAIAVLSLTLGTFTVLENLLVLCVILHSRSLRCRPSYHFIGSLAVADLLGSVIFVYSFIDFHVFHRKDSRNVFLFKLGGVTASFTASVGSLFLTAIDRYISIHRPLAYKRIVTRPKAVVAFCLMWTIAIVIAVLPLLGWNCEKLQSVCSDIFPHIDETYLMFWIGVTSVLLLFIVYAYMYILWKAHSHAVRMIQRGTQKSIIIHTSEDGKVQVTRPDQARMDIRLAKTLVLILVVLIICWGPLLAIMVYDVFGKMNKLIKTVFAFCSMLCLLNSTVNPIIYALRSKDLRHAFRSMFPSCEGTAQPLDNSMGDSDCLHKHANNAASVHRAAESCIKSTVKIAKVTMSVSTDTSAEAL

SMILES: CC(C)(C)c1nc(N2CCC(F)(F)C2)c2ccn(Cc3ccccc3C(F)(F)F)c2n1 [Example 4, 2-tert-butyl-4-(3,3-difluoropyrrolidin-1-yl)-7-[[2-(trifluoromethyl)phenyl]methyl]pyrrolo[2,3-d]pyrimidine]
- pEC50 (human CB2 receptors): 8.13
- pEC50 (human CB1 receptors): < 5.00

SMILES: CC(C)(C)c1nc(N2CCC(F)(F)C2)c2ccn(Cc3ncccc3Cl)c2n1 [Example 7, 2-tert-butyl-7-[(3-chloropyridin-2-yl)methyl]-4-(3,3-difluoropyrrolidin-1-yl)pyrrolo[2,3-d]pyrimidine]
- pEC50 (human CB2 receptors): 8.38
- pEC50 (human CB1 receptors): < 5.00

SMILES: CC(C)(C)c1nc(N2CC[C@H](O)C2)c2ccn(Cc3ccccc3S(C)(=O)=O)c2n1 [Example 45, (3S)-1-[2-tert-butyl-7-[(2-methylsulfonylphenyl)methyl]pyrrolo[2,3-d]pyrimidin-4-yl]pyrrolidin-3-ol]
- pEC50 (human CB2 receptors): 8.38
- pEC50 (human CB1 receptors): < 5.00

SMILES: CC(C)(C)c1nc(N2CCC(O)C2)c2ccn(Cc3ccccc3Cl)c2n1 (centres unmarked) [Example 24, 1-[2-tert-butyl-7-[(2-chlorophenyl)methyl]pyrrolo[2,3-d]pyrimidin-4-yl]pyrrolidin-3-ol]
- pEC50 (human CB2 receptors; [1]): 6.39
- pEC50 (human CB1 receptors): < 5.00

SMILES: CC(C)(C)c1nc(N2CCC(O)C2)c2ccn(Cc3cccc(Cl)c3Cl)c2n1 (centres unmarked) [Example 28, 1-[2-tert-butyl-7-[(2,3-dichlorophenyl)methyl]pyrrolo[2,3-d]pyrimidin-4-yl]pyrrolidin-3-ol]
- pEC50 (human CB2 receptors): 7.85
- pEC50 (human CB1 receptors): < 5.00

SMILES: Cn1nnnc1Cn1ccc2c(N3CCC(O)C3)nc(C(C)(C)C)nc21 (centres unmarked) [Example 34, 1-[2-tert-butyl-7-[(1-methyltetrazol-5-yl)methyl]pyrrolo[2,3-d]pyrimidin-4-yl]pyrrolidin-3-ol]
- pEC50 (human CB2 receptors; [1]): 6.87
- pEC50 (human CB1 receptors): < 5.00

SMILES: CC(=O)OC1CCN(c2nc(C(C)(C)C)nc3c2ccn3Cc2nonc2C)C1 (centres unmarked) [Example 37, [1-[2-tert-butyl-7-[(4-methyl-1,2,5-oxadiazol-3-yl)methyl]pyrrolo[2,3-d]pyrimidin-4-yl]pyrrolidin-3-yl]acetate]
- pEC50 (human CB2 receptors): 7.05
- pEC50 (human CB1 receptors): < 5.00

SMILES: CC(C)(C)c1nc(N2CCC(F)(F)C2)c2ccn(Cc3cccc(Cl)c3Cl)c2n1 [Example 5, 2-tert-butyl-7-[(2,3-dichlorophenyl)methyl]-4-(3,3-difluoropyrrolidin-1-yl) pyrrolo[2,3-d]pyrimidine]
- pEC50 (human CB2 receptors): 7.90
- pEC50 (human CB1 receptors): < 5.00

SMILES: CC(C)(C)c1nc(N2CC[C@H](O)C2)c2ccn(Cc3ccc(F)cc3Cl)c2n1 [Example 43, (3S)-1-[2-tert-butyl-7-[(2-chloro-4-fluorophenyl)methyl]pyrrolo[2,3-d]pyrimidin-4-yl]pyrrolidin-3-ol]
- pEC50 (human CB2 receptors): 8.20
- pEC50 (human CB1 receptors): < 5.00

SMILES: CC(=O)OC1CCN(c2nc(C(C)(C)C)nc3c2ccn3Cc2cccc(Cl)c2Cl)C1 (centres unmarked) [Example 36, [1-[2-tert-butyl-7-[(2,3-dichlorophenyl)methyl]pyrrolo[2,3-d]pyrimidin-4-yl]pyrrolidin-3-yl]acetate]
- pEC50 (human CB2 receptors): 7.07
- pEC50 (human CB1 receptors): < 5.00

SMILES: CC(C)(C)c1nc(N2CCC(F)(F)C2)c2ccn(Cc3nnnn3C3CC3)c2n1 [Example 13, 2-tert-butyl-7-[(1-cyclopropyltetrazol-5-yl)methyl]-4-(3,3-difluoropyrrolidin-1-yl)pyrrolo[2,3-d]pyrimidine]
- pEC50 (human CB2 receptors): 7.64
- pEC50 (human CB1 receptors): < 5.00

SMILES: CC(C)(C)c1nc(N2CC[C@H](O)C2)c2ccn(Cc3cccc(Cl)c3Cl)c2n1 [Example 42, (3S)-1-[2-tert-butyl-7-[(2,3-dichlorophenyl)methyl]pyrrolo[2,3-d]pyrimidin-4-yl]pyrrolidin-3-ol]
- pEC50 (human CB2 receptors): 8.46
- pEC50 (human CB1 receptors): < 5.00

SMILES: CC(C)(C)c1nc(N2CCC(O)C2)c2ccn([C@@H]3CCOC3)c2n1 (stereo partly drawn) [Example 39, 1-[2-tert-butyl-7-[(3R)-oxolan-3-yl]pyrrolo[2,3-d]pyrimidin-4-yl]pyrrolidin-3-ol]
- pEC50 (human CB2 receptors): 7.46
- pEC50 (human CB1 receptors): < 5.00
